Laboratory results taken from ChEMBL document CHEMBL5291721, “A preclinical secondary pharmacology resource illuminates target-adverse drug reaction associations of marketed drugs” (Nat Commun, 2023).

Target: Gamma-aminobutyric acid receptor subunit alpha-1 (Rattus norvegicus, UniProt P62813)
Assay: not given
Further: assay procedure not described here.

Sequence of Gamma-aminobutyric acid receptor subunit alpha-1 (P62813 whole entry): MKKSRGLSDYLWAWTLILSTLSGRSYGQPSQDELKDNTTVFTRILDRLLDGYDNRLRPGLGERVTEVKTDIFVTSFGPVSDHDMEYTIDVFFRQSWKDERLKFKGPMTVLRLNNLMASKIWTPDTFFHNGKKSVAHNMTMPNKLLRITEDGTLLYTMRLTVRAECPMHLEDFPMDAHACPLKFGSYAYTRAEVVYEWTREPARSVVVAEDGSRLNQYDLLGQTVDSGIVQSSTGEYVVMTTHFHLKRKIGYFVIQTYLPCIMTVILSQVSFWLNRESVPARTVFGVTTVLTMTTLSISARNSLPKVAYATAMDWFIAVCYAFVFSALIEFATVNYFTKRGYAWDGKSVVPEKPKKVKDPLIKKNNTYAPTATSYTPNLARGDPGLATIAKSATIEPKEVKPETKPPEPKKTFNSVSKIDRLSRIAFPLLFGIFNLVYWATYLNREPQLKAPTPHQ

Structure (SMILES) | AC50 [µM]
CN(C)S(=O)(=O)c1ccc2c(c1)N(CCCN1CCC(CCO)CC1)c1ccccc1S2 [PIPOTIAZINE] | > 30
CCc1oc2ccccc2c1C(=O)c1cc(I)c(O)c(I)c1 [BENZIODARONE] | 17.1
COCc1c(C(C)C)nc(C(C)C)c(/C=C/[C@@H](O)C[C@@H](O)CC(=O)O)c1-c1ccc(F)cc1 [CERIVASTATIN] | > 30
CC1(C)NC(=O)N(c2ccc([N+](=O)[O-])c(C(F)(F)F)c2)C1=O [NILUTAMIDE] | > 30
C[N+](C)(C)CCO [CHOLINE] | > 30
CCC(=O)NCC[C@@H]1CCc2ccc3c(c21)CCO3 [RAMELTEON] | > 30
CCOC(=O)[C@H](CCc1ccccc1)N[C@@H](C)C(=O)N1[C@H](C(=O)O)C[C@H]2CCCC[C@@H]21 [TRANDOLAPRIL] | > 30
CC(C)Nc1ncccn1 [ISAXONINE] | > 30
Cc1cc(C#N)cc(C)c1Oc1nc(Nc2ccc(C#N)cc2)nc(N)c1Br [ETRAVIRINE] | > 30
CN(C)CCn1nnnc1SCC1=C(C(=O)O)N2C(=O)[C@@H](NC(=O)Cc3csc(N)n3)[C@H]2SC1 [CEFOTIAM] | > 30
CN(C)[C@@H](c1cccc(O)c1)[C@H]1CCCC[C@H]1O [CIRAMADOL] | > 30
N[C@@H](C(=O)N[C@@H]1C(=O)N2C(C(=O)O)=C(Cl)CC[C@H]12)c1ccccc1 [LORACARBEF ANHYDROUS] | > 30
CN(C)CC(c1ccc(O)cc1)C1(O)CCCCC1 (stereo not given) [DESVENLAFAXINE] | > 30

Target: Gamma-aminobutyric acid receptor subunit alpha-1/alpha-2/beta-2/gamma-2 (Homo sapiens, UniProt P14867+P18507+P47869+P47870)
Sequence (P14867 whole entry): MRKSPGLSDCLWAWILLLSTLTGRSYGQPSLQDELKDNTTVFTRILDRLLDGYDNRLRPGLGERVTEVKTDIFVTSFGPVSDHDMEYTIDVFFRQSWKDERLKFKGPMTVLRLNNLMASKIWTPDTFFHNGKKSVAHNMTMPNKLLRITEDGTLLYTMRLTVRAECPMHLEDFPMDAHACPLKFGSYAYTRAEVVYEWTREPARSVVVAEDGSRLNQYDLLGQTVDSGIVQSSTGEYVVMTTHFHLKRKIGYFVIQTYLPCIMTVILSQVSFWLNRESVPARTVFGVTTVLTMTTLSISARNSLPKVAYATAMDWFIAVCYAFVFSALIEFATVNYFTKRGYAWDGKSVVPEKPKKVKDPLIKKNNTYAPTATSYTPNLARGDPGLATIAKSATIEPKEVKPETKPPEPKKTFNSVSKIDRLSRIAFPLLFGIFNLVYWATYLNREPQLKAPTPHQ
Sequence (P47870 whole entry): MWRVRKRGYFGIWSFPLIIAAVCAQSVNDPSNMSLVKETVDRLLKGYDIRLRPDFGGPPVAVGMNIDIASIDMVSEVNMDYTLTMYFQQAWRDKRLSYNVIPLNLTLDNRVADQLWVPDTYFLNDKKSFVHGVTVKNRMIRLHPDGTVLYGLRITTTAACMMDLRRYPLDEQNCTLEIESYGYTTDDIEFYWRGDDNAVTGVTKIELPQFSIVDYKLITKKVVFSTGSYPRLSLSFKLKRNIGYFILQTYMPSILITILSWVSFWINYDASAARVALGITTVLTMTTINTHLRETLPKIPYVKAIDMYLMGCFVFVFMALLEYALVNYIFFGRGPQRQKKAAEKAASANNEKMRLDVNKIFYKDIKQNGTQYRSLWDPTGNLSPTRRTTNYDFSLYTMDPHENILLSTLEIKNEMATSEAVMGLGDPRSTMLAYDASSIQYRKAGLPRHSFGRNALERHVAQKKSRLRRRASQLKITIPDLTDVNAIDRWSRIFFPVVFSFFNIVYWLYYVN
Sequence (P18507 whole entry): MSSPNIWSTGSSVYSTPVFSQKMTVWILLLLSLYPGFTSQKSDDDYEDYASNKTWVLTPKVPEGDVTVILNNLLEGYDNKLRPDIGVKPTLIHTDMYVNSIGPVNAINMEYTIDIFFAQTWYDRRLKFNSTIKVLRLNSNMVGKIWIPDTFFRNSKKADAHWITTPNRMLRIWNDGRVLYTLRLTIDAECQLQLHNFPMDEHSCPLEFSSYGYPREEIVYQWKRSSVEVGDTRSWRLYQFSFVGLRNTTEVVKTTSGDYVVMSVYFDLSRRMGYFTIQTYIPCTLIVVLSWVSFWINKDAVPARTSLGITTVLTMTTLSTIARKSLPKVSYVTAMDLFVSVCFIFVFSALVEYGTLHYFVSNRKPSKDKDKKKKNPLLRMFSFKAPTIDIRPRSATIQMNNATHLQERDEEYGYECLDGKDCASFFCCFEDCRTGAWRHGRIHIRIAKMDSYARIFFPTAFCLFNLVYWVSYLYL
Sequence (P47869 whole entry): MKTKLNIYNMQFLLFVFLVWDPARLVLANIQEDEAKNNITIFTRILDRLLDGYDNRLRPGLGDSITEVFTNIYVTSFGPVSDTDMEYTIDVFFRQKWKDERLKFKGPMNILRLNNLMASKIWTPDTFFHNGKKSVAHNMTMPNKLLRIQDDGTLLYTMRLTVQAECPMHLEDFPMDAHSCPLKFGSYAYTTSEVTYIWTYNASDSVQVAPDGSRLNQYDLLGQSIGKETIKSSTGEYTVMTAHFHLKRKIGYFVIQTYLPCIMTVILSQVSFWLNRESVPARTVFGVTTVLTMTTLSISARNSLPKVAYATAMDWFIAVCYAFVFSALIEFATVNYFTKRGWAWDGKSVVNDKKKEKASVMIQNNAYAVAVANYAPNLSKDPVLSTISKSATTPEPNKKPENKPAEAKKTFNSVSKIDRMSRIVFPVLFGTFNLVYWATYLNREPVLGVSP
Assay: not given
Format: protein-complex assay

Structure (SMILES) | AC50 [µM]
C[C@]12CC[C@@H]3c4ccc(O)cc4CC[C@H]3[C@@H]1C[C@@H](O)[C@@H]2O [ESTRIOL] | > 30
CCCCCCOc1nsnc1C1=CCCN(C)C1 [XANOMELINE] | > 30
O=C(CCNNC(=O)c1ccncc1)NCc1ccccc1 [NIALAMIDE] | > 30
CC(=O)N[C@@H]1[C@@H](O)[C@H](O)[C@@H](CO)O[C@H]1O [N-ACETYLGLUCOSAMINE] | > 30
CC[C@H]1[C@@H](O)[C@@H]2[C@H](CC[C@]3(C)[C@@H]([C@H](C)CCC(=O)O)CC[C@@H]23)[C@@]2(C)CC[C@@H](O)C[C@@H]12 [OBETICHOLIC ACID] | > 30
COC(c1ccccc1)(c1ccccc1)[C@H](Oc1nc(C)cc(C)n1)C(=O)O [AMBRISENTAN] | > 30
CC(C)(S)[C@@H](N)C(=O)O [PENICILLAMINE] | > 30
C=CCc1ccccc1OCC(O)CNC(C)C (stereo not given) [ALPRENOLOL] | > 0.3
N[C@H](C(=O)O)[C@H](O)c1ccc(O)c(O)c1 [DROXIDOPA] | > 30
CCOC(=O)[C@H](CCc1ccccc1)N[C@@H](C)C(=O)N1[C@H](C(=O)O)C[C@H]2CCCC[C@@H]21 [TRANDOLAPRIL] | > 30
OCCN1C[C@H](O)[C@@H](O)[C@H](O)[C@H]1CO [MIGLITOL] | > 30
Oc1c(Cl)cc(Cl)c2cccnc12 [CHLOROXINE] | > 30
CN(C)CCN1C(=O)c2ccccc2N(C)c2ccccc21 [DIBENZEPIN] | > 30
CC(C)(C)NC[C@H](O)COc1ccccc1C1CCCC1 [PENBUTOLOL] | > 30
CC[N+]1(C)[C@@H]2CC(OC(=O)[C@H](CO)c3ccccc3)C[C@H]1[C@@H]1O[C@@H]12 (stereo not given in full) [OXITROPIUM] | > 30
O=C(O)c1cc(O)ccc1O [GENTISIC ACID] | > 30

Target: Mu-type opioid receptor (Homo sapiens, UniProt P35372)
Sequence (P35372 whole entry): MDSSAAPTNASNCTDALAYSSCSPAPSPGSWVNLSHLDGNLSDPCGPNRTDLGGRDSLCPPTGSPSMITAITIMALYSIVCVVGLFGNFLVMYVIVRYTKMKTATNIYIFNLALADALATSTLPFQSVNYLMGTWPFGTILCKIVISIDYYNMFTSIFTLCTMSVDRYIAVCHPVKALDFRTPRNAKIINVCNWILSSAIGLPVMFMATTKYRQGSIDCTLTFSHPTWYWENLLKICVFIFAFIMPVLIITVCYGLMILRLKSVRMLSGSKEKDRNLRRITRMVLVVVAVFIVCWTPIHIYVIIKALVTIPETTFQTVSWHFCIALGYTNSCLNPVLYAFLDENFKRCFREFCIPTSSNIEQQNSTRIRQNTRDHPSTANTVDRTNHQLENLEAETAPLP
Assay: biochemical
Format: functional

Structure (SMILES) | AC50 [µM]
O=C(O[C@H]1C[C@H]2CC[C@@H](C1)[N+]21CCCC1)C(O)(c1ccccc1)c1ccccc1 [TROSPIUM] | > 30
CC[C@H]1[C@@H](O)[C@@H]2[C@H](CC[C@]3(C)[C@@H]([C@H](C)CCC(=O)O)CC[C@@H]23)[C@@]2(C)CC[C@@H](O)C[C@@H]12 [OBETICHOLIC ACID] | > 30
CC1(C)NC(=O)N(c2ccc([N+](=O)[O-])c(C(F)(F)F)c2)C1=O [NILUTAMIDE] | > 30
C=CCc1ccccc1OCC(O)CNC(C)C (stereo not given) [ALPRENOLOL] | > 30
CN(C)/N=N/c1[nH]cnc1C(N)=O [DACARBAZINE] | > 30
CN1C(=O)CCS(=O)(=O)C1c1ccc(Cl)cc1 (stereo not given) [CHLORMEZANONE] | > 30
O=P1(NCCCl)OCCCN1CCCl (stereo not given) [IFOSFAMIDE] | > 30
CCCCN1C[C@H](O)[C@@H](O)[C@H](O)[C@H]1CO | > 30
CC(=O)NCCCS(=O)(=O)O [ACAMPROSATE] | > 30
Cc1nc([N+](=O)[O-])cn1-c1ccc([N+](=O)[O-])cc1 [NITREFAZOLE] | > 30
COc1cc2nc(N(C)CCCNC(=O)C3CCCO3)nc(N)c2cc1OC (stereo not given) [ALFUZOSIN] | > 30
